This is an account of results in patent US6534486B1, “2-(purin-9-yl)-Tetrahydrofuran-3,4-diol derivatives” (SmithKline Beecham Corporation, priority 1998, dated 2003).

Some results are limits rather than exact numbers.

Holding throughout (type): cell-based
Conditions in all cases: ratio of EC50 to that of NECA, CHO cells transfected with human receptor, SPAP readout

Assay [1] addresses T1, human adenosine 3 receptor (Homo sapiens, UniProt P0DMS8).
T1 sequence (P0DMS8 1-318): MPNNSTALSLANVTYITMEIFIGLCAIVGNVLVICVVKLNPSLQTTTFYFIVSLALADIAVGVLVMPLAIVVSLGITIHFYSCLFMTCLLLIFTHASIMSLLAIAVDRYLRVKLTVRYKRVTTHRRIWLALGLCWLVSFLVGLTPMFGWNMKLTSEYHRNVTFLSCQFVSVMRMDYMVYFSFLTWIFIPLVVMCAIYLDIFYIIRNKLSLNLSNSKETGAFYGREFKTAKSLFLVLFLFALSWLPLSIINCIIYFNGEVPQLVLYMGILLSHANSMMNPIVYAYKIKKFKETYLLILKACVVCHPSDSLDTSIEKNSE
The assay is described as follows: Agonist activity at adenosine 3 receptor, CHO cells with CRE-SPAP reporter (forskolin-enhanced cAMP). As for the experimental part: (§1) (1) Agonist activity against adenosine 2a, adenosine 1 and adenosine 3 receptor subtypes.
(§2) Agonist selectivity of compounds against other human adenosine receptors was determined using Chinese hamster ovary (CHO) cells transfected with the gene for the relevant human adenosine receptor following a method based on that of Castanon and Spevak, 1994. The CHO cells were also transfected with cyclic AMP response elements promoting the gene for secreted placental alkaline phosphatase (SPAP) (Wood, 1995). The effect of test compounds was determined by their effects on basal levels of cAMP (A2a) or on forskolin-enhanced cAMP (A1 and A3) as reflected by changes in levels of SPAP. EC50 values for compounds were then determined as a ratio to that of the non-selective agonist N-ethyl carboxamide adenosine (NECA).

Assay [2] has as its target T2, human adenosine 1 receptor (Homo sapiens, UniProt P30542).
T2 sequence (P30542 1-326): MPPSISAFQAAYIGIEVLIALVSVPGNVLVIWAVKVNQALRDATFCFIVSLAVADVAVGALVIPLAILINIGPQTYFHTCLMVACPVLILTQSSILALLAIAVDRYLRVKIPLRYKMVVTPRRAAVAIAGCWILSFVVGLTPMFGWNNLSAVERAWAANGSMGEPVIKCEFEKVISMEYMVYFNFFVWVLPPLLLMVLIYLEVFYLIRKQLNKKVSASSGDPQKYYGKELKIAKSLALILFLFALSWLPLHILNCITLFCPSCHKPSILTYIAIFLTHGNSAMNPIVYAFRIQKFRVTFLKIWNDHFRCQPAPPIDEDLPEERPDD
The assay is described as follows: Agonist activity at adenosine 1 receptor, CHO cells with CRE-SPAP reporter (forskolin-enhanced cAMP). Here is the method:
as §1, §2

Assay [3] has as its target human adenosine 2a receptor (Homo sapiens, UniProt P29274). Nature of the assay: Agonist activity at adenosine 2a receptor, CHO cells with CRE-SPAP reporter (basal cAMP). As for the experimental part: as §1, §2

Chain of human adenosine 2a receptor (P29274 whole entry): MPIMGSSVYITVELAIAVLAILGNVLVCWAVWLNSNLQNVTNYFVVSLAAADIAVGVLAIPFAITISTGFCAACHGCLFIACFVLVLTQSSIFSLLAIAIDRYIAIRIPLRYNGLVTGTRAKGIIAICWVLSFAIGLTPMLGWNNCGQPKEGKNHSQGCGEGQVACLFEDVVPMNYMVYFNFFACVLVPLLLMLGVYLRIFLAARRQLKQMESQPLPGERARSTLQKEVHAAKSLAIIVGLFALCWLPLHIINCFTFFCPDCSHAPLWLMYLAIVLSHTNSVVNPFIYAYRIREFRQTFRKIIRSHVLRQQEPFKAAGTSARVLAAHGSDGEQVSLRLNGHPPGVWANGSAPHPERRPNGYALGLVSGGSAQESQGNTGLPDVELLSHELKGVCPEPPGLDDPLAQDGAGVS

In the case of `N[C@H]1CC[C@H](Nc2nc(NCC(c3ccccc3)c3ccccc3)c3ncn([C@@H]4O[C@H](Cn5nccn5)[C@@H](O)[C@H]4O)c3n2)CC1.O=CO` [Example 1, (2R,3R,4S, 5R)-2-[2-(trans-4-Amino-cyclohexylamino)6-(2,2-diphenyl-ethylamino)-purin-9-yl]-5-[1,2,3]triazol-2-ylmethyl-tetrahydro-furan-3,4-diol formate], the “A3, EC50 values as a ratio of that of NECA” value (“A3, EC50 values as a ratio” below) in assay [1] is over 656. In assay [2], the “A1, EC50 values as a ratio of that of NECA” value (shortened to “A1, EC50 values as a ratio”) is given as “>=3969”. In addition, the “A2a, EC50 values as a ratio of that of NECA” value (“A2a, EC50 values as a ratio” for short) in assay [3] was 17.1.

Take `OC1C(Cn2cncn2)OC(n2cnc3c(NCC(c4ccccc4)c4ccccc4)nc(NC4CCNC4)nc32)C1O` [Example 2, (2R,3R,4S,5R)-2-[6-(2,2-Diphenyl-ethylamino)-2-(pyrrolidin-3R-ylamino)-purin-9-yl]-5-[1,2,4]triazol-1-ylmethyl-tetrahydro-furan-3,4-diol diformate]: in assay [1], the “A3, EC50 values as a ratio” value is over 152. Further, in assay [2], the “A1, EC50 values as a ratio” value is over 8479. Further, the “A2a, EC50 values as a ratio” value in assay [3] was found to be 14.4.

Consider `Cn1cnc(CCNc2nc(NCC(c3ccccc3)c3ccccc3)c3ncn(C4OC(Cn5nccn5)C(O)C4O)c3n2)c1` [Example 3, (2R,3R,4S,5R)-2-{6-(2,2-Diphenyl-ethylamino)-2-[2-(1-methyl-1-H-imidazol-4-yl)-ethylamino]-purin-9-yl}-5-[1,2,3]triazol-2-ylmethyl-tetrahydro-furan-3,4-diol diformate], for which the “A3, EC50 values as a ratio” value in assay [1] is reported as over 147. Besides, in assay [2], the “A1, EC50 values as a ratio” value turned out to be 3038.8. In assay [3], the “A2a, EC50 values as a ratio” value is 1.31.

Turning to `O=CO.O[C@@H]1[C@H](O)[C@@H](Cn2nccn2)O[C@H]1n1cnc2c(NCC(c3ccccc3)c3ccccc3)nc(NCCN3CCOCC3)nc21` [Example 4, (2R,3R,4S,5R)-2-[6-(2,2-Diphenyl-ethylamino)-2-(2-morpholin-4-yl-ethylamino)-purin-9-yl]-5-[1,2,3]triazol-2-ylmethyl-tetrahydro-furan-3,4-diol formate], the “A3, EC50 values as a ratio” value in assay [1] was over 174. In addition, in assay [2], the “A1, EC50 values as a ratio” value came to 1014. For the same compound, in assay [3], the “A2a, EC50 values as a ratio” value was determined as 16.9.

Take `Cn1cnc(CCNc2nc(NCC(c3ccccc3)c3ccccc3)c3ncn([C@@H]4O[C@H](CN5C(=O)CNC5=O)[C@@H](O)[C@H]4O)c3n2)c1.O=CO.O=CO` [Example 5, 3-(5R-{6-(2,2-Diphenyl-ethylamino)-2-[2-(1-methyl-1-H-imidazol-4-yl)-ethylamino]-purin-9-yl}3S,4R-dihydroxy-tetrahydro-furan-2R-ylmethyl)-imidazolidine-2,4-dione diformate]: the “A3, EC50 values as a ratio” value in assay [1] is given as over 270. Also, the “A1, EC50 values as a ratio” value in assay [2] came to 8479. Besides, in assay [3], the “A2a, EC50 values as a ratio” value worked out at 13.46.

On to `OC1CCCC1Nc1nc(NCC(c2ccccc2)c2ccccc2)c2ncn(C3OC(Cn4cncn4)C(O)C3O)c2n1` [Example 6, (2R,3R,4S,5R)-2-[6-(2,2-Diphenyl-ethylamino)-2-(2R-hydroxy-cyclopent-(R)-ylamino)-purin-9-yl]-5-[1,2,4]triazol-1-ylmethyl-tetrahydro-furan-3,4-diol format], for which the “A3, EC50 values as a ratio” value in assay [1] is over 274. Besides, in assay [2], the “A1, EC50 values as a ratio” value is listed as “>=3397”. Besides, in assay [3], the “A2a, EC50 values as a ratio” value came out at 23.7.
